Results taken from patent US11186560B2, “Arthropod repellent chemicals” (The Regents of the University of California, priority 2015, dated 2021).

How the values were obtained:
Aedes aegypti [1] = assay: Aedes aegypti 1-choice landing assay (heat source attractant); assay type: in vivo; settings: compounds at 3% concentration; female Aedes aegypti; one heat source at 37 C. as attractant
Aedes aegypti [2] = assay: Aedes aegypti 2-choice landing assay (two-choice heat assay); assay type: in vivo; settings: compounds at 3% concentration; female Aedes aegypti; two heat sources at 37 C. as attractants; 5 minute trial
Experimental: In order to test the compounds in mosquitoes, a Two-choice heat assay in Aedes aegypti was performed. A pair of heat sources were prepared using 2 hand warmers fitted into a 100×15 mm petri dish base and covered with 15×15 cm polyester netting secured round the petri dish by a pair or 8 inch plastic cable ties (Gardner Bender, Milwaukee, Wis.) coupling. Excess netting material was trimmed off round the edges of the petri dish. The treatment chemical 500 μl was added at 3% concentration directly onto the netting and the two assembled dishes were placed inside a cage of 20 female A. aegypti mosquitoes. Total numbers of mosquito landings on the net covering of each dish were counted during the assay from video recordings of the 5 minute trial. The solvent and DEET positions were alternated between runs.

Drosophila melanogaster [3] = assay: Drosophila melanogaster 2-choice trap assay; assay type: in vivo; settings: compounds at 5% concentration; 48 hours; negative P.I. indicates repellency
Experimental: In a second type of assay, a Drosophila melanogaster 2-choice trap assay as described previously^4,6 was used with minor modifications. Traps were made with two 1.5 ml microcentrifuge tubes (USA Scientific) and 200 microliter pipette tips (USA Scientific), each cap contained standard cornmeal medium. T-shape piece of filter paper (Whatman #1) was impregnated with 5 ul of acetone (control) or 5 microliters of 5% test odor, diluted in acetone. Traps were placed within a petri dish (100×15 mm, Fisher) containing 10 ml of 1% agarose to provide moisture. Ten wild-type Drosophila melanogaster flies 4-7 days old were used per trial, which lasted 48 hours by which time point nearly all flies in the assays had made a choice and were counted. Preference Index (P.I.)=(number of flies in treated trap−number in control trap)/(number of flies in treated+control traps).

Drosophila melanogaster [4] = assay: Drosophila melanogaster T-maze assay; assay type: in vivo; settings: compounds at 5% concentration; average of 3 trials; negative P.I. indicates repellency
Experimental: T-maze assay was used to test selected compounds. 4-7 day old starved wild-type flies of Drosophila melanogaster (20 males plus 20 females/trial) were tested. Under a chemical hood, 10 ul of solvent and 10 ul of test chemical were applied onto filter paper placed in control tubes and test tubes. The flies were loaded into the elevator of a T-maze apparatus and lowered into position where they could make a choice between the solvent tube and the test chemical tube. After allowing flies to make choice for 1 minute in dark, the elevator was closed and number of flies in each tube was counted. Preference Index (P.I.)=(#flies in test arm−#flies in control arm)/(#flies in test arm+#flies in control arm). The results presented in Table 2 report the average Preference Index from 3 independent trials.

Aedes aegypti females = assay: Modified arm-in-cage assay; assay type: in vivo; settings: 3% 4-methyl piperidine on filter paper adjoining netted landing window of glove
Source text: FIG. […] (2a) Control and 4-MP treated gloves; (2b) Mean numbers of landings within minutes 2-5 of the assay. N=4 trials, ˜40 mosquitoes/trial.
The identification of these compounds started with understanding the biochemical, spacial charge density and other biochemical and physical factors aside from straight chemical structure for imparting the activity with existing DEET-like chemical structure and are therefore studying just DEET-like properties there were limits in finding completely novel classes of repellents that are not structurally related to DEET. Additional properties were then added. […] Olfactory avoidance to DEET is active over a short range (˜1 cm) and mosquitoes are not repelled beyond the immediate vicinity. Therefore, a modified arm-in-cage assay was developed where a low concentration of 4-MP can be applied to filter paper pieces adjoining the netted landing window of the glove (FIG. 2a). […]

mosquitoes = settings: cited from earlier work

Compound	Average % Repellency (Aedes aegypti [1]) [%]	P.I. (mean preference index) (Aedes aegypti [2])	P.I. (mean preference index) (Drosophila melanogaster [4])	other results
c1ccc2c(c1)CCCN2 [1,2,3,4-Tetrahydroquinoline]	99.82	−0.9965		P.I. (mean preference index) (Drosophila melanogaster [3]): −0.74
CCCCC1CO1 (centres unmarked) [1,2-Epoxyhexane]			−0.2	
CCN1CCCC1=O [1-Ethyl-2-pyrrolidone]				P.I. (mean preference index) (Drosophila melanogaster [3]): −0.12
CC1=CCC=CC1 [1-methyl-1,4-cyclohexadiene]	27.01	−0.1584	−0.76	
CC(C)CC1OCC(C)O1 (centres unmarked) [2-Isobutyl-4-methyl-1,3-dioxolane]	35.92	−0.2189	−0.3	
CC1CCCO1 (centres unmarked) [2-methyl tetrahydrofuran]	29.78	−0.1815		
C1=COCCC1 [3.4-Dihydro-2H-pyran, 3,4-Dihydro-2H-pyran]			−0.88	
CC1=C(O)C(=O)C(C)O1 (centres unmarked) [4-Hydroxy-2,5-Dimethyl-3(2H)-Furanone]				P.I. (mean preference index) (Drosophila melanogaster [3]): −0.24
CC1CC=CCC1 (centres unmarked) [4-methyl cyclohexene]	90.39	−0.8265		
CC1CCNCC1 [4-methyl piperidine]				Repellency from skin-exposed net window (Aedes aegypti females): effectively repel mosquitoes
CCN(CC)C(=O)c1cccc(C)c1 [DEET, N,N-Diethyl-m-toluamide]				Range over which olfactory avoidance is active (mosquitoes): ~1 cm
C1=COCCC1 [Dihydropyran]		−0.2819		
CCC1=C(O)C(=O)CC1 [Ethyl cyclopentenolone]	77.44	−0.7423		
CC1COC(C)(C)O1 (centres unmarked) [Propylene glycol acetone ketal]			−0.09	
COC(=O)Cc1ccc(C(C)(C)C)cc1 [methyl 2-(4-tert-butylphenyl)acetate]				P.I. (mean preference index) (Drosophila melanogaster [3]): −0.14
Isopropyl Quinoline	96.36		−0.17	
